Experimental data published in patent US20260138961A1, “MODULATORS OF MITOCHONDRIAL DNA REPLICATION” (Pretzel Therapeutics, Inc., priority 2022, published 2026).

These molecules were tested against T1, POLγA:A467T (Homo sapiens, UniProt P54098, A467T) (assay: DNA polymerization assay, POLγA:A467T mutant). Conditions: stimulation of polymerase activity, primed M13mp18 ssDNA, 37° C. 2 hours; read-out: A467T AC50.
T1 sequence (P54098 1-1239 A467T): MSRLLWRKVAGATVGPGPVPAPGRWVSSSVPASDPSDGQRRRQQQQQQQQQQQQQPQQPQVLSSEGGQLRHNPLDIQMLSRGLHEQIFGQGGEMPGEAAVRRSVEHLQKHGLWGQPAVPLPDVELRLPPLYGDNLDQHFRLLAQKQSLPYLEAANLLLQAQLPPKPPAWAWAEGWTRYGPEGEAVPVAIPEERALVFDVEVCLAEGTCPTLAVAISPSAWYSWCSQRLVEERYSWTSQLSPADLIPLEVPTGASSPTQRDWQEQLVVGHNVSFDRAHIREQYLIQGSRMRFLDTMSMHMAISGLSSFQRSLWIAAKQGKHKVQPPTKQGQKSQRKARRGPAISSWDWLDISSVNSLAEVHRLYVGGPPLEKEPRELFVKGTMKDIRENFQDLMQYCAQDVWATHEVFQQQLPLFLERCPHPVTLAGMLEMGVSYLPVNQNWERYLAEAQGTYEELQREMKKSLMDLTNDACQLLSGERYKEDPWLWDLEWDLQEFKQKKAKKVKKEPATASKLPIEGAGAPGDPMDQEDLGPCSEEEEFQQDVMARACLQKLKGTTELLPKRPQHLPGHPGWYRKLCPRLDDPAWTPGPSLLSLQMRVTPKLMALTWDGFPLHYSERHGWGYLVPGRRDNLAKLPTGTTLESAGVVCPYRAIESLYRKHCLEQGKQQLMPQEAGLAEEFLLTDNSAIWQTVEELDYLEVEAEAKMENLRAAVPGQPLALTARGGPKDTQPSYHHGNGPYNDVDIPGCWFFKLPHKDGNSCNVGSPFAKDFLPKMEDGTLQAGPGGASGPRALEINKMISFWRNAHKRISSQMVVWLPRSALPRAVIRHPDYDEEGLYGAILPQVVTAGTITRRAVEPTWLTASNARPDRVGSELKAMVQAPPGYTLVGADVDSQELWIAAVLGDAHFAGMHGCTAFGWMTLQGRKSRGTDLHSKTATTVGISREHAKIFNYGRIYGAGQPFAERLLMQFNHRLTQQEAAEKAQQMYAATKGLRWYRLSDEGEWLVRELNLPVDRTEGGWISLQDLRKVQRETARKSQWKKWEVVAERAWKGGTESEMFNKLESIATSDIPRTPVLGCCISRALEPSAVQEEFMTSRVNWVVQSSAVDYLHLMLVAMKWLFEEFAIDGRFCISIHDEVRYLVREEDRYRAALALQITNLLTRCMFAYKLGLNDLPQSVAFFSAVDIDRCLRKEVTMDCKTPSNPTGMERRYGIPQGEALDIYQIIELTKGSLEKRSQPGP
T1 sequence (Q9UHN1 1-485 partner): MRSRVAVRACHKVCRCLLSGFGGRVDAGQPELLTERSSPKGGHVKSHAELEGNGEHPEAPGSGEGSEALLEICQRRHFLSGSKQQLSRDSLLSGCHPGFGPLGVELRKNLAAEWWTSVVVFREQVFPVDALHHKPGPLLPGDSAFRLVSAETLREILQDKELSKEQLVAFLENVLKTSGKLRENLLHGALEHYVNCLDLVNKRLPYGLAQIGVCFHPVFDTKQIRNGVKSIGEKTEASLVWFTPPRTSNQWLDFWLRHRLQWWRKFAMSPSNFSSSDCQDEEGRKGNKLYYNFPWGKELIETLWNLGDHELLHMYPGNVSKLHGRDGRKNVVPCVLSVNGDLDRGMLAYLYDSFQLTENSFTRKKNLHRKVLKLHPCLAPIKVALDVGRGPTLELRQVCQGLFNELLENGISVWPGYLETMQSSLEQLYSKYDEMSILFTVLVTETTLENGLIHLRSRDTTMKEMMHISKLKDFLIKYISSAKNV
Assay type: biochemical

First: Cc1cc(S(=O)(=O)Nc2ccc3ccn(C)c3c2)c(C)cc1Cl [Example 72, 4-chloro-2,5-dimethyl-N-(1-methyl-1H-indol-6-yl)benzenesulfonamide]
Second: Cc1nc2ccc(NS(=O)(=O)c3cc(C)c(Cl)cc3C)cc2s1 [Example 73, 4-chloro-2,5-dimethyl-N-(2-methylbenzo[d]thiazol-6-yl)benzenesulfonamide]
The AC50 of the first is 2.3-fold higher: 37 µM for the first, 16 µM for the second.

Compared with Cc1cc(S(=O)(=O)Nc2ccc3nc(-c4ccccc4)sc3c2)c(C)cc1Cl [Example 74, 4-chloro-2,5-dimethyl-N-(2-phenylbenzo[d]thiazol-6-yl)benzenesulfonamide], Cc1cc(S(=O)(=O)Nc2csc(-c3ccccc3)n2)c(C)cc1Cl [Example 81, 4-chloro-2,5-dimethyl-N-(2-phenylthiazol-4-yl)benzenesulfonamide] is lower in AC50: over 100 µM for the first, 3 µM for the second.

Cc1nc2cc(NS(=O)(=O)c3cc(C)c(Cl)cc3C)ccc2o1 [Example 75, 4-chloro-2,5-dimethyl-N-(2-methylbenzo[d]oxazol-5-yl)benzenesulfonamide] and Cc1nc2cccc(NS(=O)(=O)c3cc(C)c(Cl)cc3C)c2s1 [Example 85, 4-chloro-2,5-dimethyl-N-(2-methylbenzo[d]thiazol-7-yl)benzenesulfonamide] cannot be ordered by AC50: over 100 µM for the first, over 100 µM for the second.

Compared with Cc1cc(S(=O)(=O)Nc2cccc(-c3ncc(C4CC4)s3)c2)c(C)cc1Cl [Example 76, 4-chloro-N-(3-(5-cyclopropylthiazol-2-yl)phenyl)-2,5-dimethylbenzenesulfonamide], Cc1cc(S(=O)(=O)Nc2cccc(-c3ncc(CO)s3)c2)c(C)cc1Cl [Example 89, 4-chloro-N-(3-(5-(hydroxymethyl)thiazol-2-yl)phenyl)-2,5-dimethylbenzenesulfonamide] is 2.7-fold higher in AC50: 3 µM for the first, 8 µM for the second.

Cc1cc(S(=O)(=O)Nc2ccccc2-c2ncco2)c(C)cc1Cl [Example 77, 4-chloro-2,5-dimethyl-N-(2-(oxazol-2-yl)phenyl)benzenesulfonamide] and Cc1cnc(-c2ccccc2NS(=O)(=O)c2cc(C)c(Cl)cc2C)s1 [Example 79, 4-chloro-2,5-dimethyl-N-(2-(5-methylthiazol-2-yl)phenyl)benzenesulfonamide] cannot be ordered by AC50: over 100 µM for the first, over 100 µM for the second.

Cc1cnc(-c2cccc(S(=O)(=O)Nc3cc(C)c(Cl)cc3C)c2)s1 [Example 78, N-(4-chloro-2,5-dimethylphenyl)-3-(5-methylthiazol-2-yl)benzenesulfonamide] and Cc1cnc(-c2ccc(NS(=O)(=O)c3cc(C)c(Cl)cc3C)cc2)s1 [Example 83, 4-chloro-2,5-dimethyl-N-(4-(5-methylthiazol-2-yl)phenyl)benzenesulfonamide] cannot be ordered by AC50: over 100 µM for the first, over 100 µM for the second.

Cc1csc(-c2ccccc2NS(=O)(=O)c2cc(C)c(Cl)cc2C)n1 [Example 80, 4-chloro-2,5-dimethyl-N-(2-(4-methylthiazol-2-yl)phenyl)benzenesulfonamide] and Cc1cc(S(=O)(=O)Nc2cc(-c3ccccc3)no2)c(C)cc1Cl [Example 84, 4-chloro-2,5-dimethyl-N-(3-phenylisoxazol-5-yl)benzenesulfonamide] cannot be ordered by AC50: over 100 µM for the first, over 100 µM for the second.

Cc1cc(S(=O)(=O)NC2CCOc3c(Cl)cccc32)c(C)cc1Cl (stereo not shown) [Example 82, 4-chloro-N-(8-chlorochroman-4-yl)-2,5-dimethylbenzenesulfonamide] and Cc1cc(S(=O)(=O)Nc2cccc(-c3ncc(C(=O)O)s3)c2)c(C)cc1Cl [Example 90, 2-(3-((4-chloro-2,5-dimethylphenyl)sulfonamido)phenyl) thiazole-5-carboxylic acid] cannot be ordered by AC50: over 100 µM for the first, over 100 µM for the second.

Cc1cc(S(=O)(=O)Nc2ccc(-c3ncc(CN(C)C)s3)cc2)c(C)cc1Cl [Example 86, 4-chloro-N-(4-(5-((dimethylamino)methyl)thiazol-2-yl)phenyl)-2,5-dimethylbenzenesulfonamide] and COC(=O)c1cnc(-c2cccc(NS(=O)(=O)c3cc(C)c(Cl)cc3C)c2)s1 [Example 88, methyl 2-(3-((4-chloro-2,5-dimethylphenyl)sulfonamido)phenyl) thiazole-5-carboxylate] cannot be ordered by AC50: over 100 µM for the first, over 100 µM for the second.

With Cc1cc(S(=O)(=O)Nc2cccc(C(=O)N3CCCN(C(=O)C(C)C)CC3)c2)c(C)cc1Cl [Example 91, 4-chloro-N-(3-(4-isobutyryl-1,4-diazepane-1-carbonyl)phenyl)-2,5-dimethylbenzenesulfonamide] the AC50 was over 100 µM.
